Values of other authors in US5654452A, “Lipophilic contrast agents for use in hepatocyte-selective oil-in-water emulsions” (Molecular Biosystems, Inc., priority 1995, dated 1997).

System: reticulendothelial system (RES)
Settings: in vivo

CCOC(=O)c1c(I)cc(I)c(NC(=O)CCCCC(=O)Nc2c(I)cc(I)c(C(=O)OCC)c2I)c1I [iodipamide ethyl esters]
uptake / liver specificity in reticuloendothelial system: liver specificity is mediated primarily via sequestration by the reticulendothelial system (RES)
